Results reported in patent publication US20080103185A1, “Process for Producing Thiazolidinedione Compound and Production Intermediate Thereof” (DAIICHI SANKYO COMPANY, LIMITED, priority 2005, published 2008).

Assay: Test for quality and stability over time of compound (III^1) crystals, HPLC peak area content
Format: physicochemical
Settings: HPLC area %
Description: Test for quality and stability over time of tert-butyl N-{2-{4-[(2,4-dioxothiazolidin-5-yl)methyl]phenoxyacetylamino}-5-methoxyphenyl}-N-methylcarbamate (compound (III^1))
Quality of four samples (the crystals obtained in Example 3, the crystals obtained in Example 3 and stored at 40° C. for 40 days, the purified crystals obtained in Example 4 and the purified crystals obtained in Example 4 and stored at 40° C. for 42 days) was analyzed. Quality was analyzed by the following method.
A solution of about 10 mg/L of the compound (III^1) in acetonitrile-water (4:1) was prepared.
About 20 μL of the sample solution was analyzed by high-performance liquid chromatography under the following conditions.
Column: L-column ODS 4.6×250 mm (Chemicals-Evaluation and Research Institute, Japan)
Mobile phase: 0.02 M ammonium acetate solution/acetonitrile mixture (55:45)
Detection wavelength: 220 nm
Measurement temperature: 40° C.
Peak areas were determined from chromatograms, respectively, to provide a content of each component (%) 100× (peak area of each component)/(total peak area of all components).

Row | content of component at relative retention time 3.01 (purified crystals stored at 40° C. for 42 days, immediately after drying 0.04) | content of component at relative retention time 0.43 (purified crystals stored at 40° C. for 42 days, immediately after drying 0.07) | content of component at relative retention time 0.46 (purified crystals stored at 40° C. for 42 days, immediately after drying 0.08) | content of component at relative retention time 0.21 (purified crystals stored at 40° C. for 42 days, immediately after drying 0.19) | Total of other components (purified crystals stored at 40° C. for 42 days, immediately after drying 0.25) | Total of impurities (purified crystals stored at 40° C. for 42 days, immediately after drying 0.63) | content of test substance (relative retention time 1.00) (purified crystals stored at 40° C. for 42 days, immediately after drying 99.37) | content of component at relative retention time 3.01 (crystals stored at 40° C. for 40 days, immediately after drying 0.05) | content of component at relative retention time 0.46 (crystals stored at 40° C. for 40 days, immediately after drying 0.16) | content of component at relative retention time 0.43 (crystals stored at 40° C. for 40 days, immediately after drying 0.39) | Total of other components (crystals stored at 40° C. for 40 days, immediately after drying 0.54) | content of component at relative retention time 0.21 (crystals stored at 40° C. for 40 days, immediately after drying 0.60) | Total of impurities (crystals stored at 40° C. for 40 days, immediately after drying 1.74) | content of test substance (relative retention time 1.00) (crystals stored at 40° C. for 40 days, immediately after drying 98.26) | SMILES
1 | 0.03% | 0.07% | 0.09% | 0.26% | 0.20% | 0.65% | 99.35% |  |  |  |  |  |  |  | COc1ccc(NC(=O)COc2ccc(CC3SC(=O)NC3=O)cc2)c(N(C)C(=O)OC(C)(C)C)c1 (centres unmarked) [Purified crystals of Example 4, tert-Butyl N-{2-{4-[(2,4-dioxothiazolidin-5-yl)methyl]phenoxyacetylamino}-5-methoxyphenyl}-N-methylcarbamate]
2 |  |  |  |  |  |  |  | 0.05% | 0.48% | 0.32% | 0.56% | 0.63% | 2.04% | 97.96% | COc1ccc(NC(=O)COc2ccc(CC3SC(=O)NC3=O)cc2)c(N(C)C(=O)OC(C)(C)C)c1 (centres unmarked) [Crystals of Example 3, tert-Butyl N-{2-{4-[(2,4-dioxothiazolidin-5-yl)methyl]phenoxyacetylamino}-5-methoxyphenyl}-N-methylcarbamate]
